PubChem BioAssay (NCI)
Where “and” joins values, the source holds several entries; their conditions need not be identical. Identical values can stand only once.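 Dose response: 5 concentrations. Exposure: 48 h. Format: 96-well plates. Endpoint: linear interpolation; highest concentration if not reached. GI50 = concentration required for 50% inhibition of growth. TGI marks complete inhibition of growth.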

Legend:
Assay in all cases: DTP human tumour cell line panel, 48 h
BT-549 breast = system: BT-549 breast
CAKI-1 renal = system: CAKI-1 renal
CCRF-CEM leukemia = system: CCRF-CEM leukemia
HCT-116 colon = system: HCT-116 colon
HOP-62 NSCLC = system: HOP-62 NSCLC
NCI-H23 lung = system: NCI-H23 lung
RXF 393 renal = system: RXF 393 renal
SF-539 CNS = system: SF-539 CNS
SK-MEL-28 melanoma = system: SK-MEL-28 melanoma
SNB-19 CNS = system: SNB-19 CNS

Row | SMILES | GI50 (BT-549 breast) | TGI (BT-549 breast) | GI50 (CAKI-1 renal) [µM] | TGI (CAKI-1 renal) | GI50 (CCRF-CEM leukemia) | TGI (CCRF-CEM leukemia) [µM] | GI50 (HCT-116 colon) | TGI (HCT-116 colon) [µM] | GI50 (HOP-62 NSCLC) | TGI (HOP-62 NSCLC) [µM] | GI50 (NCI-H23 lung) | TGI (NCI-H23 lung) [µM] | GI50 (RXF 393 renal) | TGI (RXF 393 renal) | GI50 (SF-539 CNS) | TGI (SF-539 CNS) [µM] | GI50 (SK-MEL-28 melanoma) | TGI (SK-MEL-28 melanoma) [µM] | GI50 (SNB-19 CNS) | TGI (SNB-19 CNS) [µM]
1 | COC(=O)Nc1nc2ccc(Oc3ccc(NC(=O)Nc4cccc(Cl)c4)cc3)cc2[nH]1 | 5.87 µM | > 21.8 µM | 1.74 | > 21.6 µM | 0.838 µM | > 15 | 1.09 µM | 5.29 | 0.9 µM | 4.73 | 2.24 µM | 12.9 | 0.445 µM | 2.34 µM | 0.658 µM | 6.85 | 1.84 µM | 7.41 | 2.61 µM | > 25
2 | O=C(/C=C\Sc1nccc(C(F)(F)F)n1)c1ccc(Br)cc1 | 44.6 µM | > 100 µM | 18 | 35.1 µM | 3.68 µM | 11.9 | 12.8 µM | 25.5 | > 100 µM | > 100 | 22.8 µM | 52.6 | 18.5 µM | 40.9 µM | 23.3 µM | 69.4 | 16 µM | 32.1 | 36.9 µM | > 100
3 | COc1cc(C(=O)n2nc(N3CCN(C)CC3)c3cc(N)ccc32)cc(OC)c1OC | 4.32 µM | > 100 µM | 4.52 | > 100 µM | 3.78 µM | > 100 | 3.84 µM | > 100 | 5.56 µM | > 100 | 4.15 µM | > 100 | 3.04 µM | > 100 µM | 2.86 µM | 10.1 | 14 µM | 99.4 | 4.75 µM | > 100
4 | O=C(O)CCC1CCC(c2cc(F)ccc2F)(S(=O)(=O)c2ccc(Cl)cc2)CC1 (centres undefined) | 10.9 µM and 97.8 µM | 43.1 µM and > 100 µM | – | 45.1 µM and > 100 µM | 29 µM and > 100 µM | > 100 | 23.5 µM and > 100 µM | > 100 | 30.5 µM and > 100 µM | > 100 | 23.4 µM and > 100 µM | > 100 | 12.5 µM and 76.6 µM | 78.8 µM and > 100 µM | 29.4 µM and > 100 µM | > 100 | 25.5 µM and > 100 µM | > 100 | 55.1 µM and > 100 µM | > 100
5 | [N-]=[N+]=CC(=O)OCC(N)C(=O)O (centres undefined) | 16.7 µM | > 100 µM | 0.429 | > 100 µM | 0.623 µM | > 100 | 0.448 µM | > 100 | 2.26 µM | > 100 | 1.85 µM | > 100 | 4.46 µM | > 100 µM | 0.64 µM | > 100 | 2.94 µM | > 100 | 2.28 µM | > 100
6 | O=C1/C(=C/C(Cl)=C/c2ccccc2)SC(=S)N1CCc1ccc(O)cc1 | 3.44 µM | > 100 µM | 1.52 | 3.78 µM | 0.441 µM | > 100 | 1.01 µM | 3.55 | 3.15 µM | 12.2 | 2.42 µM | 7.85 | 1.58 µM | 3.2 µM | 1.72 µM | 3.52 | 1.83 µM | 3.93 | 1.51 µM | 2.95
